Test results as given in patent publication EP4393921B1, “NALIDINONE COMPOUND AS FGFR4 INHIBITOR AND USE THEREOF” (Wenzhou Medical University, priority 2021, dated 2023).
Where two headings read alike, the source gives them in different places.

Assays:
[1] = target: FGFR1 (Homo sapiens, UniProt P11362); test: Mobility shift assay, FGFR1 kinase inhibition
Procedure: (§2) A specific experimental method is as follows.
(§3) (1) A 1×Kinase buffer was prepared. […] (3) A kinase solution with a 2.5 times final concentration was prepared with the 1×Kinase buffer. (4) 10 µL of the kinase solution with a 2.5 times final concentration was added to compound holes and positive control holes, respectively; and 10 µL of the 1×Kinase buffer was added to negative control holes. (5) Centrifugation was performed at 1,000 rpm for 30 s, the reaction plate was shaken for even mixing, and incubation was performed at room temperature for 60 min. (6) A mixed solution, with a 25/15 times final concentration, of ATP and Kinase substrate22 was prepared with the 1×Kinase buffer. (7) 15 µL of a mixed solution, with a 5/3 times final concentration, of ATP and a substrate was added to carry out an initial reaction. (8) A 384-well plate was centrifuged at 1,000 rpm for 30 s and shaken for even mixing, and incubation was performed at room temperature for 30 min. (9) 30 µL of a terminal detection solution was added to stop a kinase reaction, centrifugation was performed at 1,000 rpm for 30 s, and shaking was performed for even mixing. (10) A conversion rate was read with Caliper EZ Reader.
(§4) A dose-effect curve is fitted as follows.
(§5) With a concentration log value as an X axis and an inhibition rate percentage as a Y axis, the dose-effect curve was fitted by log (inhibitor) vs. response-Variable slope of analysis software GraphPad Prism 5, so as to obtain an IC50 value of each compound on enzyme activity. A calculation formula is: Y=Bottom+(Top-Bottom)/(1+10^((LogIC50-X)*HillSlope)).

[2] = target: FGFR3 (Homo sapiens, UniProt P22607); test: Mobility shift assay, FGFR3 kinase inhibition
Procedure: as §2, §3, §4, §5

[3] = target: FGFR2 (Homo sapiens, UniProt P21802); test: Mobility shift assay, FGFR2 kinase inhibition
Sequence of FGFR2 (P21802 22-821): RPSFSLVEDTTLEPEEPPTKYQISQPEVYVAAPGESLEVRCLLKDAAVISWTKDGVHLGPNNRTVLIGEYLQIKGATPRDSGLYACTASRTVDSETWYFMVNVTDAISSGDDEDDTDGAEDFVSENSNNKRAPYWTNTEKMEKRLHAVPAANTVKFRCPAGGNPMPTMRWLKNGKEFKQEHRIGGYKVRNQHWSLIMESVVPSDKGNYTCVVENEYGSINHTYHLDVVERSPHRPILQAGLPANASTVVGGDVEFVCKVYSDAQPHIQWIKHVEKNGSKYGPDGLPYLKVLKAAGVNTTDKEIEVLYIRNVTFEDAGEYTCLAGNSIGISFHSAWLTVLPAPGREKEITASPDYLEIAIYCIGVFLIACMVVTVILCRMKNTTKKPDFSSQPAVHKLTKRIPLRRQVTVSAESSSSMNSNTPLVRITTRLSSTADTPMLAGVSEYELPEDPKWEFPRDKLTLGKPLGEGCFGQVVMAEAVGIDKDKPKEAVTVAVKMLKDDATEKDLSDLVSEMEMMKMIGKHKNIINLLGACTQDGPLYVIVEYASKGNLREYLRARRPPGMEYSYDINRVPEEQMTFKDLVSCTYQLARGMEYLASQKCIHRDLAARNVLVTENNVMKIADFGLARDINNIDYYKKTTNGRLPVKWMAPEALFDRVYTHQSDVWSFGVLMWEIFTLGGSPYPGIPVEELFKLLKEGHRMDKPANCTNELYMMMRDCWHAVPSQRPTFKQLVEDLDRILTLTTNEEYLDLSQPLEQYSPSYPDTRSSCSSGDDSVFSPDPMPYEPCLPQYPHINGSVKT
Procedure: as §2, §3, §4, §5

[4] = target: FGFR4 (Homo sapiens, UniProt P22455); test: Mobility shift assay, FGFR4 kinase inhibition
Sequence of FGFR4 (P22455 22-802): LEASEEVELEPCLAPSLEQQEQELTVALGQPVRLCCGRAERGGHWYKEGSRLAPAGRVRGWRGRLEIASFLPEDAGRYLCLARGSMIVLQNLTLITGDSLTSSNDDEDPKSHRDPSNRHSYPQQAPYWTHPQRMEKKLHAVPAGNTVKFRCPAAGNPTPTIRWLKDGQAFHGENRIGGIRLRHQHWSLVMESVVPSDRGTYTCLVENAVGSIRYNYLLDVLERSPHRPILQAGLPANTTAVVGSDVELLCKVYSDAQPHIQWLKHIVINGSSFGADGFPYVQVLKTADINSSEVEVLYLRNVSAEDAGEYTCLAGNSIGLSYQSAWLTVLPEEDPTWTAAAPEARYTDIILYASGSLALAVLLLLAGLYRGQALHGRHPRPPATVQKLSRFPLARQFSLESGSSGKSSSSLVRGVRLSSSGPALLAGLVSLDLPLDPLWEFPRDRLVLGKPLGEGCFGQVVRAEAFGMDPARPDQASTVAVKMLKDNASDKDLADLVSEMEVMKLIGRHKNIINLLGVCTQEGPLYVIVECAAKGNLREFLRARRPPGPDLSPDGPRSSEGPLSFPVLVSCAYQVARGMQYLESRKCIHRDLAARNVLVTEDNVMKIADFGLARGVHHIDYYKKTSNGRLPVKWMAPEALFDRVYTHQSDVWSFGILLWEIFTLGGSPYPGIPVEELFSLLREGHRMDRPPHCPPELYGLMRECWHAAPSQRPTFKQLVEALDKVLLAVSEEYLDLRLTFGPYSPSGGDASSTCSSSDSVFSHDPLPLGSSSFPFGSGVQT
Procedure: as §2, §3, §4, §5

[5] = system: colon cancer cells SW480; test: MTT proliferation assay on colon cancer cells SW480; type: cell-based; details: 3-100 µM, 72 h, dose-dependent, FIG. 5
Procedure: (§1) An MTT method was used for determination. An experimental method is briefly described as follows. A test compound 23 was first dissolved in DMSO to prepare a stock solution, and then the stock solution was subjected to gradient dilution with a corresponding cell culture medium to prepare a test sample, where a final concentration of the compound was in the range of 3-100 uM. Cells in a logarithmic culture stage were inoculated into a 96-well cell culture plate at an appropriate density, cultured overnight under corresponding conditions, and then continuously cultured for 72 h after the test compound sample was added. After the culture was completed, an appropriate volume of an MTT detection solution was added to each well, incubation was performed at 37°C for 1-4 h, and the culture medium was carefully discarded. […].

[6] = system: colon cancer cells HCT-116; test: MTT proliferation assay on colon cancer cells HCT-116; type: cell-based; details: 3-100 µM, 72 h, dose-dependent, FIG. 4
Procedure: as §1

[7] = system: colon cancer cells RKO; test: MTT proliferation assay on colon cancer cells RKO; type: cell-based; details: 3-100 µM, 72 h, dose-dependent, FIG. 6
Procedure: as §1

Sequence of FGFR3 (P22607 23-806): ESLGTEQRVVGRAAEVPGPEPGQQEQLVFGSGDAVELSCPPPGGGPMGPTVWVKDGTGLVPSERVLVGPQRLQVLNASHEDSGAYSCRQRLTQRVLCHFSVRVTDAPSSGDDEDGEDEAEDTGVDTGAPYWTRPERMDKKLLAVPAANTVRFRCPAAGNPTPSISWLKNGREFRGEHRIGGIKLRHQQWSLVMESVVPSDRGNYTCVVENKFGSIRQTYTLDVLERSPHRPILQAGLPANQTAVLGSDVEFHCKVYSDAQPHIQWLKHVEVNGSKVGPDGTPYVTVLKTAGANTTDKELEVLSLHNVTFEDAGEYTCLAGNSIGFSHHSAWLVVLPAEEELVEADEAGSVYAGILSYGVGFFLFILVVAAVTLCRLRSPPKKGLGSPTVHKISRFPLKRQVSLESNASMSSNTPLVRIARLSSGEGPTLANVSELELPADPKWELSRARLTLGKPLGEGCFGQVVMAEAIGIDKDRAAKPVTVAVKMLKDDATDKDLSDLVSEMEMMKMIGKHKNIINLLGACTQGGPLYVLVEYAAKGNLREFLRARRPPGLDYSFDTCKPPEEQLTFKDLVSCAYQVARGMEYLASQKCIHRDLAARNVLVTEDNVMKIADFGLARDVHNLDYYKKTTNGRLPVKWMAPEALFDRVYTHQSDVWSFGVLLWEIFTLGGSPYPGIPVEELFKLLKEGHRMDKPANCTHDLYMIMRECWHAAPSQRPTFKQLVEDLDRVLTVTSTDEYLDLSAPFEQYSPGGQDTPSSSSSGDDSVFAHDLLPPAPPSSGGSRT
Sequence of FGFR1 (P11362 22-822): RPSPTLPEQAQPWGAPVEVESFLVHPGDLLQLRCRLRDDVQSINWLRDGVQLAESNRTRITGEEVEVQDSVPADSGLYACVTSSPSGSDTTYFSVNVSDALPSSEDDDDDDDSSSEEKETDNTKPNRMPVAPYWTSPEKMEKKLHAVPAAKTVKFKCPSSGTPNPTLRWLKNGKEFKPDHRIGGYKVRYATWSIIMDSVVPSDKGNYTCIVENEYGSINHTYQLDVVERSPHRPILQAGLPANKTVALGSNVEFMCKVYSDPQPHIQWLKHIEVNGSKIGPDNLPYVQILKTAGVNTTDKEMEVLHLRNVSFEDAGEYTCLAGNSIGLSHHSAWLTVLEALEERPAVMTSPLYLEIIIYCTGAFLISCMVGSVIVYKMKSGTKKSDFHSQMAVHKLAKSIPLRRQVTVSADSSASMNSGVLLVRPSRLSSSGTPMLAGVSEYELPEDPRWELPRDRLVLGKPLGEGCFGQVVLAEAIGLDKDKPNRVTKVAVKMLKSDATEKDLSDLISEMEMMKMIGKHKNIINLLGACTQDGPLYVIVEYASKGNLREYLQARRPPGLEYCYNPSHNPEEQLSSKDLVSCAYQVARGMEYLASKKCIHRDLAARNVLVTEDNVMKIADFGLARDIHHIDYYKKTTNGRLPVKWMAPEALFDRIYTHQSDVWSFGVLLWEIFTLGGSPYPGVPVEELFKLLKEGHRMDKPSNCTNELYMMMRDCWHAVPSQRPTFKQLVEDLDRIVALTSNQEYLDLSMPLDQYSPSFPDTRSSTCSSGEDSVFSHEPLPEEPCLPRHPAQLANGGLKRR

Structure (SMILES)	IC50 ([1]; read-out: IC50 (nM) FGFR1, Mobility shift assay) [nM]	IC50 [2] [µM]	IC50 [3] [µM]	IC50 [1] [nM]	IC50 [4] [µM]	inhibition of proliferation of colon cancer cells SW480 [5]	inhibition of proliferation of colon cancer cells HCT-116 [6]	inhibition of proliferation of colon cancer cells RKO [7]
C=CC(=O)Nc1cccc(C)c1Nc1cc2c(cn1)cc(-c1c(Cl)c(OC)cc(OC)c1Cl)c(=O)n2CCCN1CCCCC1 [Compound 23, N-(2-((3-(2,6-dichloro-3,5-dimethoxyphenyl)-2-oxo-1-(3-(piperidin-1-yl)propyl)-1,2-2H-1,6-naphthyridin-7-yl)amino)-3-methylphenyl)acrylamide]	–	> 5	> 5	> 5000	0.0037	can inhibit proliferation	can inhibit proliferation	can inhibit proliferation
C=CC(=O)Nc1cccc(C)c1Nc1cc2c(cn1)cc(-c1c(Cl)c(OC)cc(OC)c1Cl)c(=O)n2CCCN1CCN(C)CC1 [Compound 25, N-(2-((3-(2,6-dichloro-3,5-dimethoxyphenyl)-2-oxo-1-(3-(4-methylpiperazin-1-yl)propyl)-1,2-2H-1,6-naphthyridin-7-yl)amino)-3-methylphenyl)acrylamide]	–	> 5	> 5	> 5000	0.0058	–	–	–
C=CC(=O)Nc1cccc(C)c1Nc1cc2c(cn1)cc(-c1cc(OC)cc(OC)c1)c(=O)n2CCCN1CCOCC1 [Compound 26, N-(2-((3-(3,5-dimethoxyphenyl)-1-(3-morpholinopropyl)-2-oxo-1,2-dihydro-1,6-naphthyridin-7-yl)amino)-3-methylphenyl)acrylamide]	–	> 5	> 5	> 5000	–	–	–	–
C=CC(=O)Nc1cccc(C)c1Nc1cc2c(cn1)cc(-c1c(Cl)c(OC)cc(OC)c1Cl)c(=O)n2CCCN1CCOCC1 [Compound 27, N-(2-((3-(2,6-dichloro-3,5-dimethoxyphenyl)-1-(3-morpholinopropyl)-2-oxo-1,2-2H-1,6-naphthyridin-7-yl)amino)-3-methylphenyl)acrylamide]	–	> 5	> 5	> 5000	0.0044	–	–	–
C=CC(=O)Nc1cccc(C)c1Nc1cc2c(cn1)cc(-c1cc(OC)cc(OC)c1)c(=O)n2CCCO [Compound 29]	–	> 5	> 5	> 5000	0.0315	–	–	–
C=CC(=O)Nc1cccc(C)c1Nc1cc2c(cn1)cc(-c1c(Cl)c(OC)cc(OC)c1Cl)c(=O)n2CCCO [Compound 30, N-(2-((3-(2,6-dichloro-3,5-dimethoxyphenyl)-1-(3-hydroxypropyl)-2-oxo-1,2-2H-1,6-naphthyridin-7-yl)amino)-3-methylphenyl)acrylamide]	–	> 5	> 5	> 5000	–	–	–	–

Now from value to compound, other results behind:

IC50 ([1]; read-out: IC50 (nM) FGFR1, Mobility shift assay) [nM]	IC50 [2] [µM]	IC50 [3] [µM]	IC50 [1] [nM]	IC50 [4] [µM]	Structure (SMILES)	inhibition of proliferation of colon cancer cells SW480 [5]	inhibition of proliferation of colon cancer cells HCT-116 [6]	inhibition of proliferation of colon cancer cells RKO [7]
582	0.193	0.436	–	–	C=CC(=O)Nc1cccc(C)c1Nc1ncc2cc(-c3c(Cl)c(OC)cc(OC)c3Cl)ccc2n1 [BLU9931, reference compound]	–	–	–
–	> 5	> 5	> 5000	0.0098	C=CC(=O)Nc1cccc(C)c1Nc1cc2c(cn1)cc(-c1cc(OC)cc(OC)c1)c(=O)n2CCCN1CCCCC1 [Compound 22, N-(2-((3-(3,5-dimethoxyphenyl)-2-oxo-1-(3-(piperidin-1-yl)propyl)-1,2-dihydro-1,6-naphthyridin-7-yl)amino)-3-methylphenyl)acrylamide]	–	–	–
–	> 5	> 5	> 5000	0.0344	C=CC(=O)Nc1cccc(C)c1Nc1cc2c(cn1)cc(-c1cc(OC)cc(OC)c1)c(=O)n2CCCN1CCN(C)CC1 [Compound 24, N-(2-((3-(3,5-dimethoxyphenyl)-2-oxo-1-(3-(4-methylpiperazin-1-yl)propyl)-1,2-dihydro-1,6-naphthyridin-7-yl)amino)-3-methylphenyl)acrylamide]	–	–	–
